From US10577382B2, “Fused heterocyclic compound” (TAKEDA PHARMACEUTICAL COMPANY LIMITED, priority 2016, dated 2020)

Tests used:
Type in all cases: cell-based, human
SK-MEL-28-MYC cells = assay: Growth inhibitory action on MYC-induced SK-MEL-28-MYC cells (CellTiter-Glo); settings: 125 nM, 3 days
From the text: (§1) Human MYC cDNA was inserted downstream of the TRE of a lentiviral vector (modified pTRIPZ: GE Healthcare) having a tetracycline responsive sequence (TRE) in the promoter region. The produced virus was infected with human malignant melanoma cells SK-MEL-28 (purchased from ATCC) to establish SK-MEL-28 cells (SK-MEL-28-MYC) inducing expression of MYC in the presence of doxycycline (Takara Bio Inc.) which is a tetracycline derivative. SK-MEL-28 cells (SK-MEL-28-Control) having an empty vector with only modified pTRIPZ were also established. 20 μL/well of 2.5 μg/mL doxycycline-containing medium was added to a 96-well plate, and 80 μl/well (1,000 cells/well) of a cell suspension was added, and cultured at 37° C. for 2 days in a 5% CO2 gas incubator. Thereafter, 100 μl of a 250 nM test compound solution was added (final concentration: 125 nM), and the mixture was further cultured for 3 days. 50 µl/well of a CellTiter-Glo™ Luminescent Cell Viability Assay reagent (Promega Corporation) was added to a 96-well plate, the amount of luminescence was measured by a luminometer, and the amount of remaining ATP was determined as a cell amount. The inhibition ratio (%) of cell growth by the test compound was calculated in accordance with the following expression. Inhibition ratio (%)=(1−(amount of luminescence of test compound)÷(amount of luminescence of control group))×100

HCT116 cells = assay: Growth inhibitory activity using HCT116 cells (Cell Titer-Glo); settings: Homo sapiens, HCT-116, 72 h, compound 1 μM, 3 days, read-out: Cell growth inhibition ratio at compound concentration of 1 μM
Protocol: HCT 116 cells (ATCC) were seeded in a 384-well plate at a density of 6×10^2 cells/well, and cultured overnight in a cell culture medium McCoy's 5A (Thermo Fisher Scientific) containing 10% FBS (fetal bovine serum) and 1% penicillin/streptomycin. The dissolved test compound was added in the cell medium, and the cell medium was left standing in a CO2 incubator (37° C.) for 3 days. A Cell Titer-Glo solution (Promega Corporation) was added, the mixture was stirred at room temperature for 10 minutes, and the emission value was measured by Envision (PerkinElmer). The inhibition ratio (%) of HCT116 cell growth by the test compound was calculated in accordance with the following expression. Inhibition ratio (%)=(1−(count of test compound−blank)÷(control−blank))×100
The count of the HCT116 cell suspension without addition of the compound was described as a control, and the count without addition of the compound and addition of HCT116 cells was described as a blank. The concentration at which the inhibition ratio was 50% was defined as an IC50 value.

SK-MEL-28-Control cells = assay: Growth inhibitory action on SK-MEL-28-Control cells (CellTiter-Glo); settings: 125 nM, 3 days
From the text: as §1

p53 protein = assay: p53 induction activity in HCT116 cells (western blot); settings: 300 nM, 16 hours, relative to control group
Protocol: (§2) 1000 μl (8,0000 cells/well) of a cell suspension of human colon adenocarcinoma cells HCT116 (purchased from ATCC) was seeded in a 12-well plate, and cultured at 37° C. for 2 days in a 5% CO2 gas incubator. The test compound solution was added to a final concentration of 300 nM, and the mixture was cultured for 16 hours. The plate was washed with PBS, a protein extract (10% glycerol, 1% sodium dodecyl sulfate, 62.5 mM Tris-HCl (pH: 7.5)) was then added to dissolve the cells, and the solution was treated at 95° C. for 5 minutes. Thereafter, the amount of protein was determined using BCA Protein Assay Kit (Thermo Fisher Scientific).
(§3) The amount of the protein in each sample was adjusted, SDS-PAGE was then performed, and the protein was transferred to a PVDF membrane using an iBlot (registered trademark) gel transfer system (Invitrogen). […] The membrane was washed in the same procedure as described above, a phosphorylated CLK2 protein, a MDM4 protein, a p53 protein and a p21 protein each labeled with an antibody were then made chemiluminescent using ImmunoStar ZETA (Wako Pure Chemical Industries, Ltd.), and luminescence was detected with LAS-3000 Image Analyzer (Fujifilm Corporation). The luminescence intensity was determined using Multi Gauge Ver. 3.1 (Fujifilm Corporation), and quantified. […]

p21 protein = assay: p21 induction activity in HCT116 cells (western blot); settings: 300 nM, 16 hours, relative to control group
Protocol: as §2, §3

MDM4 protein = MDM4 protein amount in HCT116 cells (western blot); settings: 300 nM, 16 hours, relative to control group
Protocol: as §2, §3

COc1ncnn2ccc(-c3cnc4nc(C)n(Cc5nnc([C@@H](C)F)o5)c4c3)c12 [Example 286, 1-((5-((1R)-1-fluoroethyl)-1,3,4-oxadiazol-2-yl)methyl)-6-(4-methoxypyrrolo[2,1-f][1,2,4]triazin-5-yl)-2-methyl-1H-imidazo[4,5-b]pyridine]
Inhibition ratio (%) of cell growth, Doxycycline (+) (SK-MEL-28-MYC cells; Doxycycline (+), MYC induced): 69.3% | Inhibition ratio (%) of cell growth, Doxycycline (−) (SK-MEL-28-MYC cells; Doxycycline (−)): 24.7% | inhibition at 1 µM (HCT116 cells): 95% | Inhibition ratio (%) of cell growth, Doxycycline (+) (SK-MEL-28-Control cells; Doxycycline (+)): 35.7% | Inhibition ratio (%) of cell growth, Doxycycline (−) (SK-MEL-28-Control cells; Doxycycline (−)): 34.4% | Increase ratio (p53) (p53 protein): 620.7% | Increase ratio (p21) (p21 protein): 556.4% | Residual ratio (MDM4) (MDM4 protein): 43.6%
